We go through three molecules from patent publication EP0025528A1, “1-(2-Acetylphenylthio)-3-alkylamino-2-propanols and their acid-addition salts, process for their preparation and medicines containing them” (A. Nattermann & Cie. GmbH, priority 1979, dated 1981).

SMILES strings stand for the structures. Like-named read-outs stand apart in the source and are kept apart here.

One series deals with Narkotisierte Katze. The experiment in a line: Anaesthetised cat: inhibition of isoprenaline-induced tachycardia (competitive ß-adrenergic antagonism in vivo). Further details: species or system Katzen. The settings on record: Felis catus, read-out: ED50 Hemmung der Isoprenalin-induzierten Herzfrequenzsteigerung. An excerpt: Zum Nachweis des kompetitiven ß-adrenergischen Antagonismus in vivo wurden mischrassige Katzen beiderlei Geschlechts und in Chloralose-Pentobarbitalnarkose verwendet. […] Die Registrierung erfolgte über ein Stathamelement aus einem Beckman Dynograph Typ R. Aus der Blutdruckamplitude wurde mit Hilfe eines Kardiotachometers die Herzfrequenz abgenommen und auf einem weiteren Kanal des Dynographen aufgezeichnet. Die Applikation der Testlösungen erfolgte über einen Katheter in die linke Vena femoralis. Es wurde die inhibierende Wirkung ansteigender Testsubstanz-Dosen auf die durch i.v.Gabe von 0,5 gg Isoprenalin/kg Körpergewicht induzierte Tachykardie bzw. Hypotonie (Blutdrucksenkung) geprüft. Als ED50-Werte wurden in der Tabelle die Dosen der Referenz- bzw. erfindungsgemäßen Verbindung eingetragen, die die Isoprenalineffekte jeweils auf die Hälfte reduzierten.

A further series is described as follows: in vivo. Particulars: for LD50 at 168 h: mouse. An excerpt: Die akute Toxizität wurde an NMRI-Mäusen durch intravenöse bzw. orale Gabe von steigenden Dosen der erfindungsgemäßen Verbindung ermittelt.
In a further series the test system is Reserpinisierte Ratte. The experiment in a line: Intrinsic sympathomimetic activity (ISA) in reserpinised anaesthetised rat. It counts as in vivo, Wistar-Ratten. The settings on record: intravenous; maximal heart-rate increase (mean of 6 animals) relative to 1,0 µg Isoprenalin/kg i.v.; reserpine 5 mg/kg i.p. 24 h before. How it is done:
Die Tiere bekamen 24 Stunden vor Versuchsbeginn 5 mg Reserpin/kg intraperitoneal. Die Herzfrequenz wurde aus der Blutdruckamplitude (Polyäthylenkatheter mit aufgesetztem Stathamelement in der rechten Arteria femoralis) mit Hilfe eines Kardiotachometers abgenommen und auf einem Schreiber fortlaufend registriert. Die Applikation der Testlösungen erfolgte über einen Katheter in der linken Vena femoralis. Es wurden von jeder Testverbindung vier ansteigende Dosen getrennt jeweils an sechs verschiedenen Tieren geprüft.
Die maximale Steigerung der Herzfrequenz (Mittelwert aus 6 Tieren) durch die einzelnen Testverbindungen wurde als Maß für ihre agonistische Aktivität genommen und in Prozent der Frequenzsteigerung durch 1,0 µg Isoprenalin/kg Körpergewicht i.v. errechnet.

[1] abbreviates: intravenous, cat under chloralose-pentobarbital anaesthesia, isoprenaline 0,5 gg/kg i.v., dose halving the isoprenaline effect.

Turning to `CC(=O)c1ccccc1SCC(O)CNC(C)(C)C` (racemic) [Beispiel 1, 1-(2-Acetylphenylthio)-3-tert.-butyl-amino-2-propanol], the ED50 with Narkotisierte Katze (setting [1]) turned out to be 0.044 mg/kg. Further, in the series “in vivo” (iv), the selectivity ratio came out at 2520. Further, the LD50 at 168 h in the series “in vivo” (iv) is 111 mg/kg; in “in vivo” (po) it was 667 mg/kg. Further, in the series on Reserpinisierte Ratte, the “ß-sympathomimetische Eigenaktivität (ISA) in % der sympathomimetischen Aktivität von Isoprenalin” value stood at 33%.
As for `CC(=O)Nc1ccc(OCC(O)CNC(C)C)cc1` (centres unmarked) [Practolol], in the series on Narkotisierte Katze (setting [1]), the 50% effective dose (ED50) was 0.144 mg/kg. Besides, in “in vivo” (iv), the selectivity ratio is 1030 and the 50% lethal dose (LD50) at 168 h worked out at 148 mg/kg. Besides, the “ß-sympathomimetische Eigenaktivität (ISA) in % der sympathomimetischen Aktivität von Isoprenalin” value with Reserpinisierte Ratte is given as 54%.
For `CC(C)NCC(O)COc1cccc2ccccc12` (centres unmarked) [Propranolol], the 50% effective dose (ED50) with Narkotisierte Katze (iv) stood at 0.017 mg/kg. Besides, the “ß-sympathomimetische Eigenaktivität (ISA) in % der sympathomimetischen Aktivität von Isoprenalin” value in the series with Reserpinisierte Ratte is 0%.
